These results are taken from article PMC2933744 (Biochemistry, 2008).

The target in assay [1] is T1, hPRMT1 (Homo sapiens, UniProt Q99873). The experiment in a line: Initial velocity studies. The class given is biochemical. The settings on record: for K(SAM) (Michaelis constant): pH 8.0, 37°C, fit to eq 2.
The target of assay [2] is T1, hPRMT1. The experiment in a line: Dead-end analogue inhibition, AcH4-21 and SAM as substrates. The settings on record: pH 8.0, 37°C. The class given is biochemical.

The structures appear in SMILES notation.

T1 sequence (Q99873 whole entry): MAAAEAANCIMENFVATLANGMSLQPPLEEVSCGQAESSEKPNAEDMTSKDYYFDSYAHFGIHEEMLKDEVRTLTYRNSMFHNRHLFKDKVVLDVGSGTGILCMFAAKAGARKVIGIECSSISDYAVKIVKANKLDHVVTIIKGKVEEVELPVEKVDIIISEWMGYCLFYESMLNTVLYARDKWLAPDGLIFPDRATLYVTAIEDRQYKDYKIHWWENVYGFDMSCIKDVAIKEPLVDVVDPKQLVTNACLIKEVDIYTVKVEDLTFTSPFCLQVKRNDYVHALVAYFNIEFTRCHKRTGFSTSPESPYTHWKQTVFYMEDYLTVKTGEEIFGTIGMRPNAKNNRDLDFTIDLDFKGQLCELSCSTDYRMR

Regarding `C[S+](CC[C@H](N)C(=O)[O-])C[C@H]1O[C@@H](n2cnc3c(N)ncnc32)[C@H](O)[C@@H]1O` (stereo partly drawn) [SAM, S-adenosyl-L-methionine], the “K(SAM) (Michaelis constant)” value stood at 8.35 ± 2.11 on hPRMT1 [1] (AcH4-21 varied, fixed SAM 1, 2.5, 7.5 µM) and 21.1 ± 4.0 at hPRMT1 [1] (SAM varied, fixed AcH4-21 2.5, 5, 25 µM). In addition, at hPRMT1 [1] (SAM and peptide varied at various fixed concentrations of the other substrate), the “Initial velocity pattern (double reciprocal plots)” value is reported as “intersect in the second quadrant”.

`Nc1ncnc2c1ncn2[C@@H]1O[C@H](C[C@@H](N)CC[C@H](N)C(=O)O)[C@@H](O)[C@H]1O` [Sinefungin]: the “Kii (intercept Ki)” value at hPRMT1 [2] (AcH4-21 varied, fixed [SAM] = 15 µM, mixed fit eq 5) amounted to 470 ± 190 nM. The Inhibition pattern result at hPRMT1 [2] (SAM varied, fixed AcH4-21 10 µM, 212 nM hPRMT1, at least duplicate) is “Competitive”.
